From ChEMBL document CHEMBL5291721, “A preclinical secondary pharmacology resource illuminates target-adverse drug reaction associations of marketed drugs” (Nat Commun, 2023)

Assays:
Histamine H3 receptor = Histamine H3 receptor (Homo sapiens, UniProt Q9Y5N1)
[1] = target: T1, Alpha-1A adrenergic receptor (Homo sapiens, UniProt P35348); format: functional, cell-based
T1 sequence (P35348 whole entry): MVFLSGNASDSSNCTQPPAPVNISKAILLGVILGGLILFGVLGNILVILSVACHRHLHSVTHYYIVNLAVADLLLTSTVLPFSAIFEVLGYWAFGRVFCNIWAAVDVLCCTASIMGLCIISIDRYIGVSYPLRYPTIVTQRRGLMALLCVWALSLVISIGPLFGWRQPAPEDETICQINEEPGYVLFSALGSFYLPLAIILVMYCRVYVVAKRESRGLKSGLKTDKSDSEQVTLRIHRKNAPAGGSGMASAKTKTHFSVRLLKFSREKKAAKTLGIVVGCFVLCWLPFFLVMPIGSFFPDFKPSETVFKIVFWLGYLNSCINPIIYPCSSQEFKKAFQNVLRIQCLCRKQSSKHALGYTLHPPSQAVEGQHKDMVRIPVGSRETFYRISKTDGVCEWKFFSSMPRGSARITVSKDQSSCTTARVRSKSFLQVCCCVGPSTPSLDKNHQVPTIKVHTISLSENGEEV

D(1A) dopamine receptor = D(1A) dopamine receptor (Homo sapiens, UniProt P21728)
[2] = target: T2, Amine oxidase [flavin-containing] A (Homo sapiens, UniProt P21397); format: functional
T2 sequence (P21397 whole entry): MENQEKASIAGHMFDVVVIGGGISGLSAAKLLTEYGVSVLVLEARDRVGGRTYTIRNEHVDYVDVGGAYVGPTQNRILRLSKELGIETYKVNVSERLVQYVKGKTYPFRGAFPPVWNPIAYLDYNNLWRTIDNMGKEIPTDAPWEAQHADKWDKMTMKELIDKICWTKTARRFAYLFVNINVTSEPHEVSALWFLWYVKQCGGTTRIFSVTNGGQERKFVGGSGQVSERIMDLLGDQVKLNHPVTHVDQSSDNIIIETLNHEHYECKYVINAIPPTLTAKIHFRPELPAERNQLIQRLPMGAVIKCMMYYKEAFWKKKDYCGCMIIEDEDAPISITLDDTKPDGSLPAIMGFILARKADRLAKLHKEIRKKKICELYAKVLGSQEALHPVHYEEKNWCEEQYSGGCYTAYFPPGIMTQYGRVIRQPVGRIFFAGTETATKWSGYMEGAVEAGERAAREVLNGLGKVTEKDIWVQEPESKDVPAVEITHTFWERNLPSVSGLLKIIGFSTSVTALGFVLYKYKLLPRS

[3] = target: Gamma-aminobutyric acid receptor subunit alpha-1/alpha-2/beta-2/gamma-2 (Homo sapiens, UniProt P14867+P18507+P47869+P47870); format: protein-complex assay
[4] = target: T3, Alpha-2A adrenergic receptor (Homo sapiens, UniProt P08913)
T3 sequence (P08913 whole entry): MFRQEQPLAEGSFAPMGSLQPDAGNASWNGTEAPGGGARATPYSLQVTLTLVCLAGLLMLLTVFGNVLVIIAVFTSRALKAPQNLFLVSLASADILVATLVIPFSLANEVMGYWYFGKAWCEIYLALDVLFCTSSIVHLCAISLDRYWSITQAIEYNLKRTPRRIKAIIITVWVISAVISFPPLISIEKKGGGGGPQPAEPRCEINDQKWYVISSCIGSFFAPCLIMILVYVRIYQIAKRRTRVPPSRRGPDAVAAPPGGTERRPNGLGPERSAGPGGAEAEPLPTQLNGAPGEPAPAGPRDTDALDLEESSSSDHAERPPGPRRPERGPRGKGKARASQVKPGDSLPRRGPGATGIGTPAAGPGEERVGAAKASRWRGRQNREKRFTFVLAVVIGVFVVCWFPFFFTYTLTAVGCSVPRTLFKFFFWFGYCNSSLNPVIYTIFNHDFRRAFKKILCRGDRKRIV

Acetylcholinesterase = Acetylcholinesterase (Homo sapiens, UniProt P22303); format: functional
[5] = target: T1, Alpha-1A adrenergic receptor; format: functional, cell-based; remark: listed apart in the source
[6] = target: T4, 5-hydroxytryptamine receptor 1A (Homo sapiens, UniProt P08908)
T4 sequence (P08908 whole entry): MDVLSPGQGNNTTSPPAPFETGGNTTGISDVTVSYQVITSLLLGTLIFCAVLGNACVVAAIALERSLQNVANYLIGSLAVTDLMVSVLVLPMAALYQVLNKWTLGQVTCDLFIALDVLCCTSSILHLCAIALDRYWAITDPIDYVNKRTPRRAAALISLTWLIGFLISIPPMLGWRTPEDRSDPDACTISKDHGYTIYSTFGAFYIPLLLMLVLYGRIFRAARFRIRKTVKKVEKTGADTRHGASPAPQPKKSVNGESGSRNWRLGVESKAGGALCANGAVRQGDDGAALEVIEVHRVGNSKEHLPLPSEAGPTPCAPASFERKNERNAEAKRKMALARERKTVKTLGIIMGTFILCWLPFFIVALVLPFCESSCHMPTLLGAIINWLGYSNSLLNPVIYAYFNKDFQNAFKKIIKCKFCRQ

D(3) dopamine receptor = D(3) dopamine receptor (Homo sapiens, UniProt P35462)
[7] = target: T5, Muscarinic acetylcholine receptor M2 (Homo sapiens, UniProt P08172)
T5 sequence (P08172 whole entry): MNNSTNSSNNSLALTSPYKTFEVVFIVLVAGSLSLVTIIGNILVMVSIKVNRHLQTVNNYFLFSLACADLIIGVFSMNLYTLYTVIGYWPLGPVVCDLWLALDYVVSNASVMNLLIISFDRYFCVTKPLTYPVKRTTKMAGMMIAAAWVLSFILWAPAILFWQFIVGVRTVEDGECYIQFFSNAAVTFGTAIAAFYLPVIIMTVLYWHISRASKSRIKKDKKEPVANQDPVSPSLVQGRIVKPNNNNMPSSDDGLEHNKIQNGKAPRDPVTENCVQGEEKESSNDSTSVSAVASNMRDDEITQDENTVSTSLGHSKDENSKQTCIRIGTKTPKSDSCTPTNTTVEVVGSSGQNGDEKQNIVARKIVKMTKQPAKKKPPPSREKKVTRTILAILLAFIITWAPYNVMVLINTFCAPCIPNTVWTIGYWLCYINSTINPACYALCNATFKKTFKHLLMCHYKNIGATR

Mu-type opioid receptor = Mu-type opioid receptor (Homo sapiens, UniProt P35372)
[8] = target: Sodium-dependent noradrenaline transporter (Homo sapiens, UniProt P23975)
[9] = target: 5-hydroxytryptamine receptor 2B (Homo sapiens, UniProt P41595); format: functional, cell-based
[10] = target: Sodium-dependent dopamine transporter (Homo sapiens, UniProt Q01959)

Measured: AC50
Note: assay procedure not described here.

Sodium-dependent dopamine transporter, sequence (Q01959 whole entry): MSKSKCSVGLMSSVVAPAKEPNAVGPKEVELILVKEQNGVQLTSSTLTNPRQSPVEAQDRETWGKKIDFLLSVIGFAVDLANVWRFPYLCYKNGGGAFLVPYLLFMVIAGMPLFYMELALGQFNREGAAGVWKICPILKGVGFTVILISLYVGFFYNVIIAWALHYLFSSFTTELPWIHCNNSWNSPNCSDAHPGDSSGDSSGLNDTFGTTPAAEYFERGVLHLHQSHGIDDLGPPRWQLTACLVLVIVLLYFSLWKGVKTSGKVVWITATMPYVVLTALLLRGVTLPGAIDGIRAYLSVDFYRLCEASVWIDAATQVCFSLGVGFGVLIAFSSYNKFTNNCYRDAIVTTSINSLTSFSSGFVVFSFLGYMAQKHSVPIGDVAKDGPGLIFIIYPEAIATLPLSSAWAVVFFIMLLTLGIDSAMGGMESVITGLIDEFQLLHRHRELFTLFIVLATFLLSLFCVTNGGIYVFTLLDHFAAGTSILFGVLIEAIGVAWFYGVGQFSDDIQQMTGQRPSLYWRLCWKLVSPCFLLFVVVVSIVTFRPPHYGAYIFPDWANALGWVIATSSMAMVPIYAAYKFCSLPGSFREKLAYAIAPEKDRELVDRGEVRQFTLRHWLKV
Sodium-dependent noradrenaline transporter, sequence (P23975 whole entry): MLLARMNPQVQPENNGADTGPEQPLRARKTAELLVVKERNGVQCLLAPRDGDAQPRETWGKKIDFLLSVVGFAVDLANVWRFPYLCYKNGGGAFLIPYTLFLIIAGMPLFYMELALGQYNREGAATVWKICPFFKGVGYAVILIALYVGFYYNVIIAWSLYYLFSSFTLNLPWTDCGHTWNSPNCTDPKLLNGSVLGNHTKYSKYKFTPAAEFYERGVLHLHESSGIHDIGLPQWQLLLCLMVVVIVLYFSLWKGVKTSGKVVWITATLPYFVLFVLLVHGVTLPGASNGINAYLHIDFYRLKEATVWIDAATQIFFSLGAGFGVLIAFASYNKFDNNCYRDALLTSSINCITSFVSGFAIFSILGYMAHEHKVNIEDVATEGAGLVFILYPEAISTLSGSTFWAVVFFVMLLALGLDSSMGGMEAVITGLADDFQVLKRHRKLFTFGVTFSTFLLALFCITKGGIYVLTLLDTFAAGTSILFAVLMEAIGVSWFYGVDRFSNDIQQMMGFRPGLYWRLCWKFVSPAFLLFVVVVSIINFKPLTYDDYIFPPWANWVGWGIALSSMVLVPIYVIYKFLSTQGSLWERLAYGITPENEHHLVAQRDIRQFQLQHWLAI
5-hydroxytryptamine receptor 2B, sequence (P41595 whole entry): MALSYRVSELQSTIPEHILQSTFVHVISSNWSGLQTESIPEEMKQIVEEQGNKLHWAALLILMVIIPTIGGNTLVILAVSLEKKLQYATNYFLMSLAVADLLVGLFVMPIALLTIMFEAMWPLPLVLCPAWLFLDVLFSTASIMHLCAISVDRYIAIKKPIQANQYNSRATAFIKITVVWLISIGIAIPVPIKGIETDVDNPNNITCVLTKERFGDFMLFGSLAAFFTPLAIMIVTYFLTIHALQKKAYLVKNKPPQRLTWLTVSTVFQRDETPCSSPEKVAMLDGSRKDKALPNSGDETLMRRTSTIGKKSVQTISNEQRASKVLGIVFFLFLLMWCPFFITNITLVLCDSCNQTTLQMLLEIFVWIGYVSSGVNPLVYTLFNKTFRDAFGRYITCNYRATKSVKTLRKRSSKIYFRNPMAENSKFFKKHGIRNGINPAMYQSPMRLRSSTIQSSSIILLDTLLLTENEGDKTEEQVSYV
D(1A) dopamine receptor, sequence (P21728 whole entry): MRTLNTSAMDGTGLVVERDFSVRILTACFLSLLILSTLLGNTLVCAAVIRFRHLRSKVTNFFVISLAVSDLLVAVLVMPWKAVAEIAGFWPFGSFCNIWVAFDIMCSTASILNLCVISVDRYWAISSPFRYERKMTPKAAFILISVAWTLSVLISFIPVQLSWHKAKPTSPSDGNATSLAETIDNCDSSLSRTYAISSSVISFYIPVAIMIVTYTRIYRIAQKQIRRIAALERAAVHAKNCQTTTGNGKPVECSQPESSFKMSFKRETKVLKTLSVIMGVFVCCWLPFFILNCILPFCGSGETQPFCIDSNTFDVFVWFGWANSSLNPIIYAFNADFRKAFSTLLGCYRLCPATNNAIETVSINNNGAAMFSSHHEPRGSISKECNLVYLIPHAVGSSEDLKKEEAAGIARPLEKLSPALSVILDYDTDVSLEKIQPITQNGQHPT
Acetylcholinesterase, sequence (P22303 whole entry): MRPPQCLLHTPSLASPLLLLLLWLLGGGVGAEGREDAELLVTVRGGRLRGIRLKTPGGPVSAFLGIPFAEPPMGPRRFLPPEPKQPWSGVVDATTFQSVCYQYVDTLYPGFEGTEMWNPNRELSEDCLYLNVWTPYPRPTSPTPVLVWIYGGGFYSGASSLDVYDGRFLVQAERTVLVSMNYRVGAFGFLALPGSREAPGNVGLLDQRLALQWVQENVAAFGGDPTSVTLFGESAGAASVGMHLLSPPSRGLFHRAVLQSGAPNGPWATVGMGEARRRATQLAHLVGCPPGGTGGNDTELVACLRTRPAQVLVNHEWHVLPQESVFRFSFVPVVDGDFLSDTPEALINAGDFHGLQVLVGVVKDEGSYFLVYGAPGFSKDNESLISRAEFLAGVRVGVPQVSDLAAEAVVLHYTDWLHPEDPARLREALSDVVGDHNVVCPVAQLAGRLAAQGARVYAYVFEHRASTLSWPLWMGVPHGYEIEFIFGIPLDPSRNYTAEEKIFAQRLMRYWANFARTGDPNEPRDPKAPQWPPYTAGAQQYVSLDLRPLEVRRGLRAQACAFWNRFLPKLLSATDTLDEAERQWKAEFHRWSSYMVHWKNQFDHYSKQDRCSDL
Mu-type opioid receptor, sequence (P35372 whole entry): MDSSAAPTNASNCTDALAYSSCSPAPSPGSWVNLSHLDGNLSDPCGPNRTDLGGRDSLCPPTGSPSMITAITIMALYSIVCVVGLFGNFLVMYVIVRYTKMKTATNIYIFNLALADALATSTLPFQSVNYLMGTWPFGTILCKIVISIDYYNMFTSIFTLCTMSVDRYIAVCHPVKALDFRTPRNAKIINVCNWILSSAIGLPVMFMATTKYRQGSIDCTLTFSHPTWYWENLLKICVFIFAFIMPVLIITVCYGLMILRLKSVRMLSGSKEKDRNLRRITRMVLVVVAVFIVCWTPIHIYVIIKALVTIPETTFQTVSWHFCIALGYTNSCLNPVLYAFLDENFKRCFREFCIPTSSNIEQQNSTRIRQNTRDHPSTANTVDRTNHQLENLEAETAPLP
D(3) dopamine receptor, sequence (P35462 whole entry): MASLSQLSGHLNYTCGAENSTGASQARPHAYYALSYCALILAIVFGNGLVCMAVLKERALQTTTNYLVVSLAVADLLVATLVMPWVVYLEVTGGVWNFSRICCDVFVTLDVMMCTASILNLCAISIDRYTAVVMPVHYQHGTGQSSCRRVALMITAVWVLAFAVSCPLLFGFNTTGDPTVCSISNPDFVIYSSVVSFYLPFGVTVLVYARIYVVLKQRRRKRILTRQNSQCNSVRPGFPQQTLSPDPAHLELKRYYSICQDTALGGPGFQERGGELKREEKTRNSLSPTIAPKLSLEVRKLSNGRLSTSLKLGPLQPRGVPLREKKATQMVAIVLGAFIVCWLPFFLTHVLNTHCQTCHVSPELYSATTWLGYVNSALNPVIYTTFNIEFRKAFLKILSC
Histamine H3 receptor, sequence (Q9Y5N1 whole entry): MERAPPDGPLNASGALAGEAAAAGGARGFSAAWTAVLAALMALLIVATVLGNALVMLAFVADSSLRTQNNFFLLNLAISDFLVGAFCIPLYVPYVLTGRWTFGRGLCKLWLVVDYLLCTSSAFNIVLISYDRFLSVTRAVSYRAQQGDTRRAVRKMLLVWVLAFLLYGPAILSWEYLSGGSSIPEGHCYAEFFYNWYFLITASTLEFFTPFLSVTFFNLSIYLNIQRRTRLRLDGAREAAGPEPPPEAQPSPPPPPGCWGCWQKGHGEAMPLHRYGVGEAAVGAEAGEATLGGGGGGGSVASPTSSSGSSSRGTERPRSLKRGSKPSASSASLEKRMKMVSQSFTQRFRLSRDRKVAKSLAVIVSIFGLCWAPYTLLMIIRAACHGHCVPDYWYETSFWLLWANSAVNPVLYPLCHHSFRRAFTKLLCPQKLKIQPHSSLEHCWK

Oc1ccccc1 [PHENOL]
> 30 µM: Histamine H3 receptor | [1] | D(1A) dopamine receptor | [2] | [3] | [4] | Acetylcholinesterase | [5] | [6] | D(3) dopamine receptor | [7] | Mu-type opioid receptor | [8] | [9] | [10]
